# According to article PMC7821884, “BRAF inhibition protects against hearing loss in mice” (Science Advances, 2020):
# Experiments:
# [1] = system: Tg(brn3c:GFP) zebrafish larvae neuromast HCs; assay: Zebrafish lateral line neuromast hair cell loss after cisplatin; type: in vivo; conditions: 1 hour pretreatment, 6 hours 400 μM cisplatin; dabrafenib 100 nM
# Source text: Lateral line neuromasts of zebrafish are a well-established model for the study of drug protection from cisplatin or aminoglycoside toxicity because their HCs are considered homologous to mammalian HCs and readily accessible to compounds in vivo ([47]–[49]). As in our previous studies, MI1 (medial neuromast 1) and O1-2 (otic line) neuromasts were examined in Tg(brn3c:GFP) zebrafish larvae 5 days after fertilization ([50], [51]). […] Green fluorescent protein (GFP) (brn3c) and otoferlin staining were used to identify neuromast HCs. In fig.
# Zebrafish (D. rerio) experimental larvae of either sex were obtained by pair mating of adult fish maintained at Boys Town National Research Hospital. We used zebrafish line Tg(brn3c:GFP) that expresses a membrane-bound GFP in HCs. Fish were maintained at 28.5°C in E3 media [5 mM NaCl, 0.17 mM KCl, 0.33 mM CaCl2, and 0.33 MgSO4 (pH 7.2)] at a density of 50 embryos/larvae per […] petri dish. Experimental animals were used at 5 days post-fertilization and cryo-anesthetized after treatment and before fixation. Average HC counts in our studies were obtained from the following three neuromasts: MI1 (medial neuromast 1) and O1 and O2 (otic line).
# P42 FVB mice [2] = assay: Noise-induced hearing loss in adult mice (ABR, DPOAE, Ctbp2 puncta, pERK); type: in vivo, mouse
# Method: Noise injury cannot always be predicted, and pretreatment is often not an option.
# (§1) Compounds were dissolved in a mixture of 10% DMSO, 5% Tween 80 (P1754, Sigma-Aldrich), 40% PEG-E-300 (91462-1KG, Sigma-Aldrich), and 45% 0.9% saline.
# (§2) ABR in mice was measured for left ears as described previously with minor modifications ([13], [34]). In brief, ABR waveforms were recorded in a sound booth (Industrial Acoustic Company) by using subdermal needles positioned in the skull, below the pinna, and at the base of the tail, and the responses were fed into a low-impedance Medusa digital biological amplifier system (RA4L; TDT; 20-dB gain). At each frequency, the stimulus intensity was reduced from 90 to 0 dB in 10-dB steps to determine the threshold decibel SPL when the electrical response was just above the noise floor. ABR waveforms were averaged in response to 500 tone bursts. The recorded signals were filtered by a band-pass filter from 300 Hz to 3 kHz. Pretreatment ABR recordings of adult FVB mice (aged 6 weeks) were acquired 1 week before all treatments, and posttreatment ABR measurements were recorded 21 days after cisplatin treatment or 14 days after noise exposure. ABR threshold was determined by the presence of any of three or more of the five waveform peaks. […] All thresholds and shifts were determined independently by two experimenters for each mouse. Individual ABR wave 1 amplitudes were measured as the difference between the positive peak and the following negative trough.
# Mice were placed in individual cages in a custom-made acrylic chamber. The sound stimulus was produced by System RZ6 (TDT) equipment and amplified using a 75-A power amplifier (Crown). Sound was delivered to the acrylic chamber via a speaker horn (JBL). The SPL was calibrated with a 1/4-inch free-field microphone (PCB). Before experimental noise exposure, four quadrants of the cage inside the chamber were sampled with the 1/4-inch microphone to ensure that the SPL varied by <0.5 dB across the measured positions. Adult mice were then exposed to 2 hours of octave band noise (8 to 16 kHz) at 100 dB.
# Organs of Corti were costained with anti-Ctbp2 and anti–myosin VI antibodies. Confocal imaging was performed using a Zeiss 700 scanning confocal microscope with a 63× objective. Visualization and projections were performed using ZEN 2009 or ZEN 2012 software (Zeiss). Ctbp2 puncta were visualized and counted on the reconstructed three-dimensional images by using the ZEN 2009 or ZEN 2012 three-dimensional construct function as previously reported ([54]). […] Images were acquired around 16-kHz cochlear regions, and each image included 12 to 18 IHCs that were quantified as total number of Ctbp2 puncta divided by total number of IHCs per image.
# SK-N-AS = assay: Tumor Cell Titer-Glo viability assay, SK-N-AS; type: cell-based, human; conditions: SKN-AS, + 15 μM cisplatin, 48 hours
# Source text: (§3) In clinical settings, cisplatin is used to treat several tumor types, including neuroblastoma and lung carcinoma. […] Medium-alone–, cisplatin-alone–, and dabrafenib-alone–treated cells were used as controls, and viability was reported as percent survival compared to medium alone (Fig. 4E).
# (§4) Three human neuroblastoma cell lines IMR-32, SH-SY5Y, and, SK-N-AS, as well as three human lung carcinoma cell lines SHP-77 small cell, H1155 non–small cell, and A549 non–small cell, were used to determine the compounds’ effect on cisplatin’s tumor-killing efficacy ([77]–[83]). Cell lines were purchased from the American Type Culture Collection (ATCC), and cell culture was conducted according to ATCC specifications. Neuroblastoma cell lines IMR-32 and SH-SY5Y are maintained in Dulbecco’s modified Eagle’s medium (DMEM) 1× with glucose (4.5 g/liter), L-glutamine, and sodium pyruvate (10-013-CV, Corning) with 10% fetal bovine serum (FBS) (35011132, Corning) and ampicillin (50 μg/ml; A5354-10ML, Sigma-Aldrich) added. The SK-N-AS cell line is maintained in DMEM 1× with D-glucose (4.5 g/liter), L-glutamine, and 25 mM Hepes (12430-054, Gibco) with 10% FBS, 0.1 mM nonessential amino acids, and ampicillin (50 μg/ml) added. A549 cells are maintained in F-12K medium with L-glutamine (30-2004, ATCC) with 10% FBS and ampicillin (50 μg/ml) added. […]
# [3] = system: human neuroblastoma and lung carcinoma cell lines; assay: Tumor Cell Titer-Glo viability assay, interference with cisplatin tumor killing (six cell lines); type: cell-based; conditions: compound at 3× protective IC50 (dabrafenib 35 μM, AZD5438 […]) + 15 μM cisplatin (200 μM for A549), 48 hours
# Source text: as §3, §4
# P42 FVB mice [4] = assay: Cisplatin-induced hearing loss in adult mice (ABR, OHC counts, pERK); conditions: 75 mg/kg oral gavage, cisplatin 30 mg/kg i.p.
# Method: As described in Fig. 4A, baseline auditory brainstem response (ABR) thresholds for P42 FVB mice were established 1 week before experimental procedures. […] Animals were allowed 21 days after cisplatin injection to recover, and final ABR thresholds were recorded.
# Ten milligrams of cisplatin (479306, Sigma-Aldrich) powder was dissolved in 10 ml of sterile saline (0.9% NaCl) at 37°C for 40 to 60 min. Cisplatin was administered to FVB mice at 30 mg/kg via intraperitoneal injection. One day before cisplatin injection, mice received 1 ml of saline by subcutaneous injection. To ameliorate dehydration after cisplatin injection, 1 ml of warm saline was injected twice per day for at least 7 days or until body weight started to recover. The cages of cisplatin-treated mice were placed on the heating pad for at least 7 days or until body weight began to recover. Fresh mush food was daily given for at least 7 days.
# as §1, §2
# Cochleae from adult mice were prepared and examined as described previously ([85], [86]). All images were acquired with a confocal microscope (LSM 700 or 710, Zeiss). Samples were stained with phalloidin (A12379 or A12380, Invitrogen) or with antibodies for other markers. The following primary antibodies were used: anti–myosin VI (1:400; 25-6791; Proteus Bioscience), anti–myosin VIIa ([…];138-1-s, Developmental Studies Hybridoma Bank), anti-Tuj1 (1:250; 801201, BioLegend), anti-pERK (1:400; 9101S, Cell Signaling Technology), or anti-Ctbp2 (1:500; 612044, BD Transduction). Anti-rabbit Alexa Fluor 488 (1:400; A11034) and anti-mouse Alexa Fluor 647 (1:400; A31571) secondary antibodies were purchased from Invitrogen. ProLong gold antifade reagent with 4′,6-diamidino-2-phenylindole (P36941, Invitrogen) was used to counterstain nuclei.
smiles,measurement,setting,value
Cc1ncc(-c2ccnc(Nc3ccc(S(C)(=O)=O)cc3)n2)n1C(C)C [AZD5438],protection from cisplatin-induced neuromast HC loss,[1],confer protection
same,"reduction of ABR threshold shifts, treatment after noise","P42 FVB mice [2]; 35 mg/kg twice daily oral gavage, post-noise",did not significantly reduce
same,"protection against noise-induced hearing loss, pretreatment",P42 FVB mice [2]; 75 mg/kg oral gavage pretreatment,protected
same,interference with cisplatin killing ability,SK-N-AS,interfered with cisplatin killing ability
same,effect on cisplatin-induced tumor cell death,[3],did not interfere with or enhanced
same,"protection against cisplatin-induced hearing loss, pretreatment",P42 FVB mice [4],protected
